Earlier results on one compound are cited in patent US20120252675A1, “HERBICIDE […] A […] E[…] A POLYA[…] THE ALKYL GROUP IS BRANCHED” (priority 2009, published 2012).

The structures appear in SMILES notation.

The conditions of this series: room temperature.

Turning to `O=C(O)CNCP(=O)(O)O` [glyphosate], the solubility in water result was “about 1.5 % by weight”.
